Laboratory results reported in US20250108029A1, “INHIBITORS OF THE INTERACTION BETWEEN THE ROCK AND PDK1 PROTEIN KINASES” (Université Paris Cite, priority 2021, published 2025).
Read-outs that look alike come from different tables or passages of the source.

Legend:
[1] = system: IRF transcription factor; assay: IRF activation in THP1-Dual cells after cGAMP (luciferase assay); format: cell-based, human; settings: according to a dose effect; stimulation of the STING interferon pathway by cGAMP, 24 h
Experimental: The THP1-Dual reporter cell line was cultured at 5×10^5/ml. […] The THP1-Dual cells were stimulated for 24 h with the STING pathway agonist, cGAMP. Luciferase assay (luminometry)
The THP1-Dual cells express the Lucia luciferase reporter gene under a promoter containing five IFN response elements. The THP1-Dual cells allow the IRF pathway to be studied by measuring Lucia luciferase activity. Lucia luciferase activity is determined by means of the QUANTI-Luc Gold assay (InvivoGen). The THP1-Dual cells are cultured in a 96-well plate (200 μL/well). After LPS or R848 treatment, for each well, 10 μL of culture medium are added to 50 μL of QUANTI-Luc GOLD solution and the light signal produced is measured by means of a luminometer.

[2] = system: IRFs; assay: Interferon pathway (IRF) activity in reporter cells fed supernatants of R848-stimulated PBMCs; format: cell-based, human; settings: for IC50: Homo sapiens, PBMC, read-out: IC50 IFR; for secretion of interferons on PBMCs: preventively, 1 h before stimulation by TLR7/8
Source text: (§1) The supernatants were collected for cytokine detection.

[3] = system: peripheral blood mononuclear cells (PBMCs); assay: Interferon secretion by PBMCs stimulated with influenza virus (THP1-Dual reporter); format: cell-based, human; settings: 20 μM, 1 h before stimulation by the influenza virus, 24 h
[4] = system: monocytes; assay: Intracellular TNFα production in isolated monocytes by flow cytometry; format: cell-based, human
[5] = system: peripheral blood mononuclear cells (PBMCs); assay: LegendPlex assay of cytokines in supernatants of stimulated PBMCs; settings: for secretion of TNFα, IL-1β, IL-6, IL-18, IL-23, IFNγ and MCP1 on PBMCs: stimulation by TLR4 (LPS 100 ng/ml, 24 h); for secretion of TNFα, IL-1β, IL-6, IL-10, IL-12 p70, IL-18, IL-23, IL-33, IFNα2, IFNγ and MCP1 on PBMCs: stimulation by TLR7/8 (R848 5 μg/ml, 24 h)
Experimental: The in vitro experiments were carried out using human peripheral blood mononuclear cells (PBMCs) isolated by density with centrifugation using a medium for separating white blood cells from peripheral blood ([sequence] Technologies). The blood from the healthy donors was obtained at the “Etablissement Frangais du Sang” (French Blood Establishment) (convention #07/CABANEL/106; Paris, France). […] The peripheral blood mononuclear cells (PBMCs) were cultured in RPMI 1640 (Sigma) containing 10% inactivated fetal calf serum and 1 mM glutamine (Hyclone, Logan, UT).
The PBMCs were cultured at 2×10^6 cells/ml. The cells were then incubated with the compounds of formula (V) and (VI) at the indicated concentrations for 1 hour before stimulation. The PBMCs were then stimulated for 24 h with the TLR7/8 agonist Resiquimod—R848 at 5 μg/ml and the TLR4 agonist Lipopolysaccharide—LPS at 100 ng/ml. The supernatants were collected for cytokine detection.
An assay of the cytokines in the supernatants of the cell cultures was carried out using the “LegendPlex Antivirus Human Panel” or “LegendPlex Human Inflammation Panel” (Biolegend, San Diego, USA) according to the manufacturer's instructions.

[6] = system: B lymphocytes; assay: B lymphocyte activation (CD69) by flow cytometry after TLR9 stimulation; format: cell-based, human; settings: 20 μM, 1 h before TLR9 agonist CpG-A, 16 h
Experimental: The B lymphocytes were purified by negative selection with the “B Cell Isolation Kit” (Miltenyi).
The B lymphocytes were cultured at 1×10^6/ml. […] They were stimulated for 16 h (flow cytometry) with the TLR9 agonist CpG-A at […]. The cells were recovered for flow cytometry.
After washing, the cells were resuspended in PBS containing 2% of FCS and 2 mM of EDTA and then labeled with an anti-CD69 antibody (clone REA824) from Miltenyi Biotec, used at 1/100° for 30 min at 4° C. The cells were washed twice and then passed into flow cytometry. The data acquisition was carried out on the Canto II flow cytometer using Diva software (BD Biosciences, San Jose, CA). FlowJo software was used to analyze the data.

[7] = system: plasmacytoid dendritic cells (pDCs); format: cell-based, human
[8] = system: THP1 human monocytic cell line; assay: RT-qPCR of pro-inflammatory gene transcription in THP1-Dual monocytes; format: cell-based; settings: dose effect; for concentration from which transcription of the genes coding for TNFα and IL-1β is reduced: induced by LPS, 1 hour; for concentration from which transcription of the genes coding for TNFα, IL-6, MCP1 and IL-1β is reduced: induced by R848 5 μg/ml, 16 h
Experimental: The THP1-Dual cell lines were cultured at 1×10^6 cells/ml.
The THP1-Dual cells (InvivoGen) were stimulated for 16 h with the TLR7/8 agonist (R848) at 5 μg/ml or for 1 hour with the TLR4 agonist (LPS) at 100 ng·ml, respectively. The cells were washed in PBS and lysed to prepare the mRNAs for an RT-qPCR analysis.
The total RNAs are extracted from the cells with the E.Z.N.A. kit. Total RNA Kit 1 (Omega Bio-tek) according to the supplier's instructions. The RNA concentration is measured by means of a spectrophotometer (Nanodrop ND-1000). The total RNA is reverse-transcribed into cDNA by means of the PrimeScript RT Master Mix kit (Takara RR036A). The cDNA synthesis is carried out according to the following protocol: 300-500 ng of RNA in 8 μL of water free of RNase, supplemented with 2 μL of the reaction buffer (containing the PrimeScript reverse transcriptase, RNase inhibitors, oligo(dT) primers, random 6mers and the mix of dNTPs). The enzymatic reverse transcription reaction is carried out at 37° C. for 15 min. The enzyme is inactivated by incubating the sample at 85° C. for 15 sec.
The quantitative real-time PCR is carried out according to the following conditions: cDNA diluted to 1/10th is added to the following mixture: 3.8 μL of H2O, […] of sense and antisense primers (10 μM) (Table 3), 5 μL of Absolute qPCR SYBR Green Mix containing Thermo-Start DNA Polymerase, MgCl2, SYBR Green and dNTPs (Eurogentec). The assays are carried out in triplicate in a 384-well plate (Thermo Scientific). DNA amplification by quantitative PCR is carried out in the CFX384 system (Bio-Rad) with the following program: 3 min at 95° C./5 sec at 95° C. and 30 sec at 60° C. repeated 40 cycles/2 min at 72° C. and 30 sec at 95° C. followed by a dissociation step which makes it possible to verify the specificity of the amplification product. The DNA amplification data are analyzed with Bio-Rad CFX Manager software.

[9] = system: monocytes; assay: TNFα production in monocytes treated with siPDK1 or siCTL and stimulated with R848; format: cell-based, human; settings: 20 μM, 1 h before R848 1 μg/ml
[10] = system: peripheral blood mononuclear cells (PBMCs); assay: Interferon secretion by PBMCs stimulated with HIV (THP1-Dual reporter); format: cell-based, human; settings: 20 μM, 1 h before stimulation by the HIV virus, 24 h
Source text: as §1

[11] = system: NF-κB transcription factor; assay: NF-κB activity in THP1-Dual reporter cells fed supernatants of R848-stimulated PBMCs; settings: for IC50: Homo sapiens, THP1-Dual, read-out: IC50 NF-κB; for secretion of inflammatory cytokines on PBMCs: preventively, 1 h before stimulation by TLR7/8
Experimental: The in vitro experiments were carried out using human peripheral blood mononuclear cells (PBMCs) isolated by density with centrifugation using a medium for separating white blood cells from peripheral blood ([sequence] Technologies). […] The peripheral blood mononuclear cells (PBMCs) were cultured in RPMI 1640 (Sigma) containing 10% inactivated fetal calf serum and 1 mM glutamine (Hyclone, Logan, UT).
The PBMCs were cultured at 2×10^6 cells/ml. The cells were then incubated with the compounds of the invention at the indicated concentrations for 1 h before stimulation. The PBMCs were then stimulated for 24 h with the TLR7/8 agonist Resiquimod (R848) at 5 μg/ml. The supernatants were collected for cytokine detection.
The activity of the NF-κB transcription Factor and the induction of the interferon (IFN) pathway via interferon regulatory factors (IRFs) were measured using the THP1-Dual reporter cell line from InvivoGen. The PBMC culture supernatants were added to the THP1-Dual cultures at a rate of 0.4×10^6 cells/ml for 24 h. The activity of the NF-κB transcription factor was measured with QUANTI-Blue, a SEAP detection agent following the supplier's recommendations. The activity of the IRFs was measured with QUANTI-Luc, a luciferase detection reagent following the supplier's recommendations.

[12] = system: NF-κB transcription factor; assay: NF-κB activation in THP1-Dual cells (SEAP assay); format: cell-based, human; settings: according to a dose effect
Experimental: The THP1-Dual reporter cell line was cultured at 5×10^5/ml.
The THP1-Dual cells express the secreted embryonic alkaline phosphatase (SEAP) reporter gene under a promoter containing five copies of the NF-κB consensus transcriptional response element. The THP1-Dual cells allow the NF-κB pathway to be studied by monitoring the SEAP activity. The SEAP alkaline phosphatase activity is determined by means of the QUANTI-Blue colorimetric enzyme assay (InvivoGen). The THP1-Dual cells are cultured in a 96-well plate (200 μL/well). After LPS or R848 treatment, for each well, 20 μL of culture medium are added to 180 μL of the QUANTI-Blue solution and incubated at 37° C. for 2 h. Absorbance (measurement at 655 nm with a spectrophotometer (Bio-Rad Model 680 microplate reader) is proportional to SEAP activity.

[13] = system: pyruvate kinase (PK); assay: Pyruvate kinase activity assay; format: biochemical
Experimental: Inhibitors (2 μL) are added to 193 μL of a mixture containing PEP, ADP, MgSO4, β-NADH and L-lactic dehydrogenase. After reading at 340 nm, 7 μL of pyruvate kinase are added to the mixture. The samples are read at 340 nm every 1 to 2 min for 20 min.

[14] = PBMCs incubated with compound 1 h before R848 5 μg/ml for 24 h, supernatants on reporter cells, QUANTI-Luc
[15] = Condition A: 20 μM, 1 h before stimulation of TLR7/8 (R848 5 μg/ml)
[16] = Condition B: 20 μM, 1 h before stimulation of TLR4 (LPS 100 ng/ml)
[17] = Condition C: 20 μM, 1 h before stimulation of TLR2 (LTA 1 μg/ml)
[18] = Condition B: 20 μM, 1 h before stimulation by the influenza virus
[19] = stimulation of TLR4 by LPS, 24 h
[20] = stimulation of TLR7/8 by R848, 24 h

SMILES	activation of the IRF transcription factor in THP1-Dual cells [1]	IC50 [2, 14]	secretion of interferons on PBMCs [2]	secretion of interferons by PBMCs [3]	production of TNFα on monocytes [4, 15]	production of TNFα on monocytes [4, 16]	production of TNFα on monocytes [4, 17]	secretion of TNFα, IL-1β, IL-6, IL-18, IL-23, IFNγ and MCP1 on PBMCs [5]	secretion of TNFα, IL-1β, IL-6, IL-10, IL-12 p70, IL-18, IL-23, IL-33, IFNα2, IFNγ and MCP1 on PBMCs [5]	activation of B lymphocytes (CD69 membrane activation marker) [6]	production of TNFα on plasmacytoid dendritic cells [7, 18]	concentration from which transcription of the genes coding for TNFα and IL-1β is reduced [8]	concentration from which transcription of the genes coding for TNFα, IL-6, MCP1 and IL-1β is reduced [8]	production of TNFα by monocytes treated with control siRNAs (siCTL) [9]	production of TNFα by monocytes treated with siRNAs targeting PDK1 (siPDK1) [9]	secretion of interferons by PBMCs [10]	IC50 [11]	secretion of inflammatory cytokines on PBMCs [11]	activation of the NF-κB transcription factor in THP1-Dual cells [12, 19]	activation of the NF-κB transcription factor in THP1-Dual cells [12, 20]	other results
COC(=O)c1c(NC(=O)C(F)(F)F)c(C#N)nn1-c1cccc(OC)c1 [Compound of formula (IX), methyl 3-cyano-1-(3-methoxyphenyl)-4-(2,2,2-trifluoroacetamido)-1H-pyrazole-5-carboxylate]	inhibit	0.4 µM	capable of blocking	inhibit																	
COc1cccc(NN=C(C#N)C#N)c1 [Compound of formula (V), 2-[(3-methoxyphenyl)hydrazinylidene]propanedinitrile]	inhibit		capable of blocking	inhibit	inhibit	inhibit	inhibit	capable of blocking	capable of blocking	capable of blocking	inhibit	≥ 5 µM	≥ 5 µM	inhibit	fail to inhibit	inhibit	3.8 µM	capable of blocking	inhibit	inhibit	production of TNFα on plasmacytoid dendritic cells ([7]; Condition A: 20 μM, 1 h before stimulation of TLR7 (R848 5 μg/ml)): inhibit; production of TNFα on plasmacytoid dendritic cells ([7]; Condition C: 20 μM, 1 h before stimulation of TLR9 (CpG-A)): inhibit; IC50 [2]: 3 µM; enzymatic activity of pyruvate kinase (PK) [13]: no impact
COc1ccc(NN=C(C#N)C#N)cc1 [Compound of formula (VI), 2-[(4-methoxyphenyl)hydrazinylidene]propanedinitrile]	inhibit	3 µM	capable of blocking	inhibit	inhibit	inhibit	inhibit	capable of blocking	capable of blocking	capable of blocking	inhibit	≥ 1 µM	≥ 2 µM	inhibit	fail to inhibit	inhibit	5 µM	capable of blocking	inhibit	inhibit	production of TNFα on plasmacytoid dendritic cells [7]: inhibit; enzymatic activity of pyruvate kinase (PK) [13]: no impact
COc1cccc(-n2nc3c(N)cc(-c4ccccc4)nc3c2C(=O)NCc2ccccc2)c1 [Compound of formula (VII), 7-amino-N-benzyl-2-(3-methoxyphenyl)-5-phenyl-2H-pyrazolo[4,3-b]pyridine-3-carboxamide]		23 µM	capable of blocking							capable of blocking											
COc1cccc(-n2nc3c(N)cc(-c4ccccc4)nc3c2C(=O)NN)c1 [Compound of formula (VIII), 7-amino-2-(3-methoxyphenyl)-5-phenyl-2H-pyrazolo[4,3-b]pyridine-3-carbohydrazide]	inhibit	23 µM	capable of blocking	inhibit						capable of blocking						inhibit					
